Experimental data from ChEMBL document CHEMBL5608185, “Design, synthesis and evaluation of carbamate-bridged amino acid prodrugs of cycloicaritin with improved antitumor activity, aqueous solubility and phase II metabolic stability” (Eur J Med Chem, 2024).
Values after ≈ are worked out from the molar mass of the structure shown. Each block holds one compound with its values, some of them ahead of it.

Experiments:
[1] = Oral bioavailability in rat; type: ADME, organism-based; conditions: in vivo
[2] = AUC (0 to t) in Sprague-Dawley rat at 20 mg/kg, po measured upto 12 hrs by HPLC-MS/MS analysis; type: ADME, organism-based; conditions: in vivo
[3] = Chemical stability of the compound in simulated intestinal fluid assessed as half life by HPLC analysis; type: ADME, physicochemical
[4] = Cmax in male Sprague-Dawley rat at 20 mg/kg, po measured up to 12 hrs in presence of fexofenadine by HPLC-MS/MS analysis; type: ADME, organism-based; conditions: in vivo, with fexofenadine (dose not stated)
[5] = AUC (0 to t) in male Sprague-Dawley rat at 20 mg/kg, po measured up to 12 hrs in presence of glycyl-sarcosine by HPLC-MS/MS analysis; type: ADME, organism-based; conditions: in vivo, with glycyl-sarcosine (dose not stated)
[6] = Stability at phase II in rat liver microsomes assessed as half life at 10 uM measured every 10 mins for 70 mins by HPLC-UV analysis; type: ADME, Microsome
[7] = Toxicity in BALB/c mouse assessed as effect on body weight at 35 to 150 mg/kg, po measured after 16 days; type: organism-based; conditions: in vivo, 384 h, dose 35-150 mg/kg, time 16 day
4T1 [8] = test: Cytotoxicity against mouse 4T1 cells assessed as reduction in cell viability incubated for 72 hrs by MTT assay; type: functional, cell-based
[9] = Chemical stability of the compound assessed as half life at pH 4.5 by HPLC analysis; type: physicochemical; conditions: buffer
[10] = Chemical stability of the compound assessed as half life at pH 6.8 by HPLC analysis; type: physicochemical; conditions: buffer
[11] = AUC (0 to t) in male Sprague-Dawley rat at 20 mg/kg, po measured up to 12 hrs in presence of fexofenadine by HPLC-MS/MS analysis; type: ADME, organism-based; conditions: in vivo, with fexofenadine (dose not stated)
[12] = Tmax in Sprague-Dawley rat at 20 mg/kg, po measured upto 12 hrs by HPLC-MS/MS analysis; type: ADME, organism-based; conditions: in vivo
[13] = Aqueous solubility of the compound incubated for 72 hrs by shake-flask method; type: physicochemical; conditions: buffer
[14] = Stability in Sprague-Dawley rat blood homogenates assessed as half life at pH 7.4 by HPLC analysis; type: ADME, tissue-based
[15] = Drug uptake in human Caco-2 cells at 5 uM at pH 6.0 incubated for 10 mins by HPLC-MS/MS analysis; type: ADME, cell-based; conditions: caco-2, pH 6, 10 min
[16] = Drug uptake in human Caco-2 cells at 5 uM at pH 7.4 incubated for 10 mins by HPLC-MS/MS analysis; type: ADME, cell-based; conditions: caco-2, pH 7.4, 10 min
[17] = Prodrug conversion in Sprague-Dawley rat assessed as Tmax of cycloicaritin metabolite at 20 mg/kg, po measured up to 12 hrs by HPLC-MS/MS analysis; type: ADME, organism-based; conditions: in vivo
[18] = Stability in Sprague-Dawley rat intestine homogenates assessed as half life at pH 7.4 by HPLC analysis; type: ADME, tissue-based
[19] = Stability in rat liver microsomes assessed as parent compound remaining at 10 uM measured after 70 mins by HPLC-UV analysis; type: ADME, Microsome; conditions: read-out: Stability
[20] = Stability in Sprague-Dawley rat liver homogenates assessed as half life at pH 7.4 by HPLC analysis; type: ADME, tissue-based
[21] = Prodrug conversion in Sprague-Dawley rat assessed as Cmax of cycloicaritin metabolite at 20 mg/kg, po measured up to 12 hrs by HPLC-MS/MS analysis; type: ADME, organism-based; conditions: in vivo
[22] = Drug uptake in human Caco-2 cells at 5 uM incubated for 10 mins in presence of Estrone-3-sulfate by HPLC-MS/MS analysis; type: ADME, cell-based; conditions: caco-2, 10 min
[23] = Chemical stability of the compound assessed as half life at pH 7.4 by HPLC analysis; type: physicochemical; conditions: buffer
[24] = Drug uptake in human Caco-2 cells at 5 uM incubated for 10 mins in presence of fexofenadine by HPLC-MS/MS analysis; type: ADME, cell-based; conditions: caco-2, 10 min
[25] = Chemical stability of the compound in simulated gastric fluid assessed as half life by HPLC analysis; type: ADME, physicochemical
[26] = Chemical stability of the compound assessed as half life at pH 1.2 by HPLC analysis; type: physicochemical; conditions: buffer
[27] = Toxicity in BALB/c mouse assessed as effect on AST level at 35 to 150 mg/kg, po measured after 16 days; type: organism-based; conditions: in vivo, 384 h, dose 35-150 mg/kg, time 16 day
[28] = Toxicity in BALB/c mouse assessed as effect on CREA level at 35 to 150 mg/kg, po measured after 16 days; type: organism-based; conditions: in vivo, 384 h, dose 35-150 mg/kg, time 16 day
[29] = Cmax in male Sprague-Dawley rat at 20 mg/kg, po measured up to 12 hrs in presence of glycyl-sarcosine by HPLC-MS/MS analysis; type: ADME, organism-based; conditions: in vivo, with glycyl-sarcosine (dose not stated)
[30] = Drug uptake in human Caco-2 cells over 1 to 100 uM incubated for 10 mins by HPLC-MS/MS analysis; type: ADME, cell-based; conditions: caco-2, 10 min, dose 1-100 µM
4T1 [31] = test: Antitumor activity against mouse 4T1 cells xenografted in BALB/c mouse model assessed as reduction in tumor growth administered once daily via oral gavage and measured every two days for 16 days; type: functional, cell-based; conditions: dose 35-150 mg/kg, time 16.0 day
[32] = Prodrug conversion in Sprague-Dawley rat assessed as half life of cycloicaritin metabolite at 20 mg/kg, po measured up to 12 hrs by HPLC-MS/MS analysis; type: ADME, organism-based; conditions: in vivo
[33] = Prodrug conversion in Sprague-Dawley rat assessed as AUC (0 to t) of cycloicaritin metabolite at 20 mg/kg, po measured up to 12 hrs by HPLC-MS/MS analysis; type: ADME, organism-based; conditions: in vivo
[34] = Half life in Sprague-Dawley rat at 20 mg/kg, po measured upto 12 hrs by HPLC-MS/MS analysis; type: ADME, organism-based; conditions: in vivo
[35] = Cytotoxicity against mouse 3T3 cells assessed as reduction in cell viability incubated for 72 hrs by MTT assay; type: toxicity, cell-based; conditions: NIH3T3 cells
[36] = Toxicity in BALB/c mouse assessed as effect on BUN level at 35 to 150 mg/kg, po measured after 16 days; type: organism-based; conditions: in vivo, 384 h, dose 35-150 mg/kg, time 16 day
[37] = Drug uptake in human Caco-2 cells at 5 uM incubated for 10 mins in presence of glycyl-sarcosine by HPLC-MS/MS analysis; type: ADME, cell-based; conditions: caco-2, 10 min
HepG2 = test: Cytotoxicity against human HepG2 cells assessed as reduction in cell viability incubated for 72 hrs by MTT assay; type: functional, cell-based
[38] = Toxicity in BALB/c mouse assessed as effect on ALT level at 35 to 150 mg/kg, po measured after 16 days; type: organism-based; conditions: in vivo, 384 h, dose 35-150 mg/kg, time 16 day
[39] = Cmax in Sprague-Dawley rat at 20 mg/kg, po measured upto 12 hrs by HPLC-MS/MS analysis; type: ADME, organism-based; conditions: in vivo
[40] = Octanol/water partition coefficient, logP of the compound incubated for 72 hrs by HPLC-MS/MS analysis; type: physicochemical
[41] = Drug uptake in human Caco-2 cells over 0.5 to 50 uM incubated for 10 mins by HPLC-MS/MS analysis; type: ADME, cell-based; conditions: caco-2, 10 min, dose 0.5-50 µM
[42] = Drug metabolism in rat liver microsomes at 10 uM measured upto 70 mins by HPLC-UV analysis; type: ADME, Microsome; conditions: 1.167 h
[43] = Selectivity ratio of cytotoxicity against human HepG2 cells to cytotoxicity against mouse 4T1 cells

bioavailability [1]: 4.3%
SMILES: COc1ccc(-c2oc3c(CC=C(C)C)c(O)cc(O)c3c(=O)c2O)cc1 [ICARITIN]

AUC(0-t) at 12 h [2]: 0.463 µM·h
half-life [3]: > 12 h
Cmax [4]: 47.4 nM
AUC(0-t) at 12 h [5]: 0.812 µM·h
half-life at 10 µM [6]: > 1.16 h
half-life [9]: > 12 h
half-life [10]: > 12 h
AUC(0-t) at 12 h [11]: 0.303 µM·h
Tmax [12]: 1 h
solubility thermodynamic at 72 h [13]: 13 µM (≈ 6.84 µg/mL)
half-life [14]: 0.5 h
Drug uptake [15]: Active
Drug uptake [16]: Not Active
Tmax [17]: 0.9 h
half-life [18]: 8.67 h
remaining at 1.167 h, 10 µM [19]: 76%
half-life [20]: 8.6 h
Cmax [21]: 66.6 nM
Drug uptake [22]: Not Active
half-life [23]: > 12 h
Drug uptake [24]: Not Active
half-life [25]: > 12 h
half-life [26]: > 12 h
Cmax [29]: 204 nM
Drug uptake [30]: Not Active
t1/2 [32]: 6.96 h
AUCt [33]: 0.1587 µM·h
half-life [34]: 5.34 h
Drug uptake [37]: Active
Cmax [39]: 156 nM
logP at 72 h [40]: 3.42
SMILES: COc1ccc(-c2oc3c4c(cc(O)c3c(=O)c2OC(=O)N[C@@H](CC(C)C)C(=O)O)OC(C)(C)CC4)cc1
Activity [7]: Non-Toxic
Activity (4T1 [8]): Dose-Dependent Effect
Activity [27]: Non-Toxic
Activity [28]: Non-Toxic
Activity (4T1 [31]): Dose-Dependent Effect
IC50 at 72 h [35]: > 100 µM
Activity [36]: Non-Toxic
Activity (HepG2): Dose-Dependent Effect
Activity [38]: Non-Toxic

half-life [3]: > 12 h
half-life at 10 µM [6]: > 1.16 h
half-life [9]: > 12 h
half-life [10]: > 12 h
solubility thermodynamic at 72 h [13]: 11.4 µM (≈ 6.01 µg/mL)
half-life [14]: 0.36 h
Drug uptake [16]: Not Active
half-life [18]: 4.71 h
remaining at 1.167 h, 10 µM [19]: 76%
half-life [20]: 4.62 h
Drug uptake [22]: Not Active
half-life [23]: 4.97 h
Drug uptake [24]: Not Active
half-life [25]: > 12 h
half-life [26]: > 12 h
Drug uptake [30]: Not Active
logP at 72 h [40]: 2.69
SMILES: CC[C@H](C)[C@H](NC(=O)Oc1c(-c2ccc(OC)cc2)oc2c3c(cc(O)c2c1=O)OC(C)(C)CC3)C(=O)O

solubility thermodynamic at 72 h [13]: 1.1 µM (≈ 0.596 µg/mL)
SMILES: COc1ccc(-c2oc3c4c(cc(O)c3c(=O)c2OC(=O)N[C@@H](CCC(=O)O)C(=O)O)OC(C)(C)CC4)cc1

half-life [3]: > 12 h
half-life at 10 µM [6]: > 1.16 h
half-life [9]: > 12 h
half-life [10]: > 12 h
solubility thermodynamic at 72 h [13]: 2.68 µM (≈ 1.5 µg/mL)
half-life [14]: 0.45 h
half-life [18]: 5.85 h
remaining at 1.167 h, 10 µM [19]: 76%
half-life [20]: 6.04 h
half-life [23]: 6.09 h
half-life [25]: > 12 h
half-life [26]: > 12 h
Drug uptake [30]: Not Active
logP at 72 h [40]: 4.33
SMILES: COc1ccc(-c2oc3c4c(cc(O)c3c(=O)c2OC(=O)N[C@@H](Cc2ccccc2)C(=O)O)OC(C)(C)CC4)cc1

half-life [3]: > 12 h
Drug uptake [41]: Active
half-life at 10 µM [6]: 0.62 h
half-life [9]: > 12 h
half-life [10]: > 12 h
solubility thermodynamic at 72 h [13]: 0.81 µM (≈ 0.298 µg/mL)
half-life [14]: > 12 h
Drug uptake [15]: Active
Drug uptake [16]: Active
half-life [18]: > 12 h
remaining at 1.167 h, 10 µM [19]: 27%
half-life [20]: > 12 h
Drug uptake [22]: Active
half-life [23]: > 12 h
Drug uptake [24]: Active
half-life [25]: > 12 h
half-life [26]: > 12 h
Drug metabolism [42]: Metabolite_Detected
Drug uptake [37]: Active
logP at 72 h [40]: 3.8
SMILES: COc1ccc(-c2oc3c4c(cc(O)c3c(=O)c2O)OC(C)(C)CC4)cc1
Activity (4T1 [8]): Dose-Dependent Effect
Selectivity ratio [43]: 1.8
IC50 at 72 h [35]: > 50 µM
Activity (HepG2): Dose-Dependent Effect

half-life [3]: 5.24 h
half-life at 10 µM [6]: > 1.16 h
half-life [9]: > 12 h
half-life [10]: 5.21 h
solubility thermodynamic at 72 h [13]: 3.64 µM (≈ 1.71 µg/mL)
half-life [14]: 0.25 h
half-life [18]: 1.89 h
remaining at 1.167 h, 10 µM [19]: 76%
half-life [20]: 1.96 h
half-life [23]: 1.96 h
half-life [25]: > 12 h
half-life [26]: > 12 h
Drug uptake [30]: Not Active
logP at 72 h [40]: 3.66
SMILES: COc1ccc(-c2oc3c4c(cc(O)c3c(=O)c2OC(=O)NCC(=O)O)OC(C)(C)CC4)cc1

half-life [3]: > 12 h
half-life at 10 µM [6]: > 1.16 h
half-life [9]: > 12 h
half-life [10]: > 12 h
solubility thermodynamic at 72 h [13]: 5.69 µM (≈ 2.91 µg/mL)
half-life [14]: 0.47 h
Drug uptake [16]: Not Active
half-life [18]: 7.22 h
remaining at 1.167 h, 10 µM [19]: 76%
half-life [20]: 7.99 h
Drug uptake [22]: Not Active
half-life [23]: 8.17 h
Drug uptake [24]: Not Active
half-life [25]: > 12 h
half-life [26]: > 12 h
Drug uptake [30]: Not Active
logP at 72 h [40]: 2.75
SMILES: COc1ccc(-c2oc3c4c(cc(O)c3c(=O)c2OC(=O)N[C@H](C(=O)O)C(C)C)OC(C)(C)CC4)cc1
